Test results: patent US11707448B2, “Combination therapies for the treatment of cancer” (Eisai R&D Management Co., Ltd., priority 2014, dated 2023)
Counter-ions that a name gives are not always drawn.

System: PAN02 pancreatic tumors
Test: PAN02 pancreatic tumor model, ER-886046 with gemcitabine and radiation
Format: in vivo, mice
Conditions: gemcitabine single 40 mg/kg + RT single 6 Gy on day 27; first study (FIG. 10)
Procedure: FIG. 10. […] Antitumor activity of gemcitabine plus local radiation (RT) administered to PAN02 pancreatic tumors in C57BL/6 mice with or without ER-886046. Gemcitabine and RT dosing: a single 40 mg/kg dose of gemcitabine and a single 6 Gy dose of RT, was administered on day 27 post tumor cell injection. ER-8806046 was administered daily in an amount of 150 mg/kg from day 27 post tumor cell injection until the end of the study.
FIG. 11A to FIG. 11B. Additional experiments with combination therapy of ER-886046 and anti-metabolite chemotherapy with radiation compared to anti-metabolite chemotherapy with radiation alone. Panel shown in FIG. 11A) Gemcitabine and RT dosing: a single 40 mg/kg dose of gemcitabine and a single 6 Gy dose of RT, was administered on day 19 post tumor cell injection. ER-8806046 was administered daily in an amount of 150 mg/kg from day 19 post tumor cell injection until the end of the study. Panel shown in FIG. 11B) Gemcitabine and RT dosing: a single 40 mg/kg dose of gemcitabine and a single 6 Gy dose of RT, was administered on day 12 post tumor cell injection. ER-8806046 was administered daily in an amount of 150 mg/kg from day 12 post tumor cell injection until the end of the study. Average tumor sizes of mouse pancreatic PAN02 tumor-bearing mice that received vehicles, ER-886046, gemcitabine (gem) plus radiation (RT), ER-886046 plus RT, or ER-886046 plus gemcitabine and RT at indicated dosages and schedules. A and B represent each independent study. N=8-10 per group. NS, not significant; *, p<0.05; **, p<0.01; ***, p<0.001; and ****, p<0.0001, two-way ANOVA test.
Animal studies; In vitro cultured cancer cells were harvested and suspended in 100 μl of cold HBSS buffer at cell concentrations of 1.0×10^6 cells/ml (CT-26 cells) or of 1.0×10^7 cells/ml (PAN02 cells) and subcutaneously (sc) injected into the mice using a 26 g syringe on day 0. At the dates as indicated in the figures, the mice were randomized based on the tumor size followed by treatments with local radiation alone, gemcitabine alone (intravenous administration), ER-886046 alone (oral administration), or combinations of these treatments. […] The tumor sizes were measured twice a week by a digital caliber (Mitutoyo Corp), and the volume was calculated using the formula (1×w^2)/2=mm^3, where 1 and w refer to the larger and smaller perpendicular dimensions collected at each measurement. Graphs of group tumor sizes (mean±SEM) versus time were plotted using software GraphPad Prism 6 (Lake Forest, Calif.). Two way ANOVA was used for statistical calculation among the groups. N=8-10 in each treatment group.

Compound: Nc1ccn([C@@H]2O[C@H](CO)[C@@H](O)C2(F)F)c(=O)n1 [gemcitabine, Gemcitabine hydrochloride, reference compound]
- tumor growth delay activity: weak but statistically significant tumor growth delay activity
